Laboratory results reported in patent US20240294531A1, “COVALENT HETEROCYCLES AND USES THEREOF” (Kumquat Biosciences Inc., priority 2022, published 2024).

What was measured:
Assay type in all cases: binding
BTK wildtype protein [1] = molecular target: T1, BTK wildtype protein (Homo sapiens (Human), UniProt Q06187); experiment: Kinact/KI determination for BTK protein inhibitors (Kobs)
Protocol: Test compounds were prepared as 10 mM stock solutions in DMSO (Fisher cat #BP231-100). Human recombinant BTK wildtype protein 393-659 or BTK C481S protein 393-659 was produced in house or purchased from Saromics Biostructures AB (Lund, Sweden). BTK protein was diluted to 1 μM in buffer (20 mM Hepes, pH 7.5, 150 mM NaCl, 1 mM MgCl2, 1 mM DTT). For testing BTK modification, compounds were diluted to 50× final test concentration in DMSO in 96-well storage plates. 1 μL of the diluted 50× compounds were added to appropriate wells in the PCR plate (Fisher cat #AB-0800). Increasing concentrations of compounds were added to separate wells, resulting in final assay compound concentrations of 3 μM, 10 μM, 30 μM and 100 μM. 49 μL of the stock protein solution was added to each well of the 96-well PCR plate. Reactions were mixed carefully. The plate was sealed well with aluminum plate seal and stored in a drawer at room temperature. After different incubation times, the reactions were quenched by adding 5 μL of 2% formic acid (Fisher cat #A117-50) in MilliQ H2O to each well followed by mixing with a pipette. The plate was then resealed with aluminum seal and stored until mass spectrometry analysis.
The extent of covalent modification of BTK proteins was determined by liquid chromatography electrospray mass spectrometry analysis of the intact proteins using a Thermo Q-Exactive Plus mass spectrometer. 20 μL of sample was injected onto a bioZen 3.6 μm Intact C4 column (Phenomenex cat #00B-4767-AN) placed in a column oven set to 40° C. and separated using a LC gradient from 20% to 60% solvent B. Solvent A was 0.1% formic acid and solvent B was 0.1% formic acid in acetonitrile. HESI source settings were set to 40, 5 and 1 for the sheath, auxiliary and sweep gas flow, respectively. The spray voltage was 4 kV, and the capillary temperature was 320° C. S-lens RF level was 50 and auxiliary gas heater temperature was set to 200° C. The mass spectrometry was acquired using a scan range from 650 to 1750 m/z using positive polarity at a mass resolution of 70,000, AGC target of 1e6 ions and maximum injection time of 250 ms. The recorded protein mass spectrum was deconvoluted from the raw data file using Protein Deconvolution v4.0 (Thermo). The protein mass, adduct masses and their corresponding peak intensities were exported to Excel (Microsoft). The peak intensities for the unmodified and modified protein were used to calculate the percent covalent modification of the BTK protein based on the following equation: % BTK protein modification=((BTK−compound)/(BTK)+(BTK−Compound))*100.
The Kinact/KI is a rate constant describing the efficiency of covalent bond formation resulting from the potency (KI) of the first reversible binding event and the maximum potential rate (Kinact) of inactivation. The percent […] protein modification was plotted as a function of time using Prism version 9.4.1 (GraphPad), and the observed rate of modification (Kobs), a first-order rate constant with units of inverse time, was estimated using nonlinear regression at each compound concentration. […] If Kobs is increasing with compound concentration, KI is higher than 3 μM. Kinact/KI can be estimated by plotting Kobs values against each compound concentration used in separate reactions. The Kobs values are fitted to determine Kinact and KI using the following equation, Kobs=(Kinact×[compound conc])/(KI+[compound conc]).
Target sequence in this assay (Q06187 393-659): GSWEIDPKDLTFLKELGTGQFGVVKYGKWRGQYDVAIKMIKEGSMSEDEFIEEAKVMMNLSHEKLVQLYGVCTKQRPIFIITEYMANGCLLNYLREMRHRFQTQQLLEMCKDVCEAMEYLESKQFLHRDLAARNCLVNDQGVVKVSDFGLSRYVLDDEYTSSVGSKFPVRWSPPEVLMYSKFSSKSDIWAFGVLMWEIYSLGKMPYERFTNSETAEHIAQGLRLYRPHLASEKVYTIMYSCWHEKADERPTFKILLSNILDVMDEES

BTK wildtype protein [2] = molecular target: T1, BTK wildtype protein; experiment: BTK wildtype HTRF displacement assay; conditions: 1-hour incubation; read-out: BTK (wt) IC50
Summary of the method: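 Full-length N-terminal GST-tagged BTK incubated 1 h at room temperature with compound (6 doses, four-fold dilutions from 5 μM top) plus kinase tracer 239 and anti-GST-Tb antibody. Tracer displacement read as TR-FRET 665/620 ratio, background-subtracted using no-protein control. IC50 from four-parameter fit constrained 0–100% inhibition.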
Target sequence in this assay (Q06187 2-659): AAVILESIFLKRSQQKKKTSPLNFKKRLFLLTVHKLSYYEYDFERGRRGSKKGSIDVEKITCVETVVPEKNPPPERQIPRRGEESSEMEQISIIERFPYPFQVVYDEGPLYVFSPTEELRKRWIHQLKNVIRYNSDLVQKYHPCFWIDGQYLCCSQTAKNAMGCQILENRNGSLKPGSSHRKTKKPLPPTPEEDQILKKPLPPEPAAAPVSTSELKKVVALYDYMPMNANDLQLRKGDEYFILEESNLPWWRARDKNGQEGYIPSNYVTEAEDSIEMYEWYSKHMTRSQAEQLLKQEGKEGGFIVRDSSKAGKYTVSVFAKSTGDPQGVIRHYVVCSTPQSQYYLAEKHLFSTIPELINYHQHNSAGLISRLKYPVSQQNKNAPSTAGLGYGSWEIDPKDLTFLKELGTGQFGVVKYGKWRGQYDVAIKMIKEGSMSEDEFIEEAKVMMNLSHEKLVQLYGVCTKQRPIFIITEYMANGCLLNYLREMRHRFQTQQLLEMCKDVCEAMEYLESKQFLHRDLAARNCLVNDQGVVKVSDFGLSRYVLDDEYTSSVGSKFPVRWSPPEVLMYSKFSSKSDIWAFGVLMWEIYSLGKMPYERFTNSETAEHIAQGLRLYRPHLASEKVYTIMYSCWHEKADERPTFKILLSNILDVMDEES

BTK C481S protein = BTK C481S protein (Homo sapiens (Human), UniProt Q06187, C481S); experiment: BTK C481S HTRF displacement assay; conditions: 1-hour incubation
Summary of the method: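 N-terminal GST-tagged BTK C481S (2-659) incubated 1 hour at room temperature with compound (6 doses, four-fold from 5 μM), 50 nM kinase tracer 239 and anti-GST-Tb antibody. TR-FRET 665/620 ratio, background-subtracted; IC50 from constrained four-parameter fit. KI=IC50/(1+[Tracer]/Kd), tracer Kd 54 nM.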

Chain of BTK C481S protein (Q06187 2-659 C481S): as the sequence (Q06187 2-659) above, with C480S counted along it

| SMILES | IC50 (BTK wildtype protein [2]) | IC50 (BTK C481S protein) | BTK (wt) Kobs (BTK wildtype protein [1]) |
| --- | --- | --- | --- |
| COc1ccc(F)cc1C(=O)NCc1ccc(-c2nn(C(CCCN(C)C(=O)n3cncn3)N(C)C)c3ncnc(N)c23)cc1 (stereo not drawn) [Compound 254, N-(4-(4-amino-3-(4-((5-fluoro-2-methoxybenzamido)methyl)phenyl)-1H-pyrazolo[3,4-d]pyrimidin-1-yl)-4-(dimethyl-amino)butyl)-N-methyl-1H-1,2,4-triazole-1-carboxamide] | > 1000 nM | > 1000 nM | 248, 249, 250, 253, 254, 256, 259, 260, 261, 264, 265, M^−1 · s^−1 |
| COc1ccc(F)cc1C(=O)NCc1ccc(-c2nn(C(C)C(C)N(C)C(=O)n3cncn3)c3ncnc(N)c23)cc1 (stereo not drawn) [Compound 250, N-(3-(4-amino-3-(4-((5-fluoro-2-methoxybenzamido)methyl)phenyl)-1H-pyrazolo[3,4-d]pyrimidin-1-yl)butan-2-yl)-N-methyl-1H-1,2,4-triazole-1-carboxamide] | ≤ 1000 nM | ≤ 1000 nM | 248, 249, 250, 253, 254, 256, 259, 260, 261, 264, 265, M^−1 · s^−1 |
| COCC(CN(C)C(=O)n1cncn1)n1nc(-c2ccc(CNC(=O)c3cc(F)ccc3OC)cc2)c2c(N)ncnc21 (stereo not drawn) [Compound 261, N-(2-(4-amino-3-(4-((5-fluoro-2-methoxybenzamido)methyl)phenyl)-1H-pyrazolo[3,4-d]pyrimidin-1-yl)-3-methoxypropyl)-N-methyl-1H-1,2,4-triazole-1-carboxamide] | > 1000 nM | > 1000 nM | 248, 249, 250, 253, 254, 256, 259, 260, 261, 264, 265, M^−1 · s^−1 |
| NC(=O)c1c(-c2ccc(Oc3ccccc3)cc2)nn2c1NCCC2[C@H]1CCCN1C(=O)n1cncn1 (stereo partly drawn) [Compound 140, 7-((R)-1-(1H-1,2,4-triazole-1-carbonyl)pyrrolidin-2-yl)-2-(4-phenoxyphenyl)-4,5,6,7-tetrahydropyrazolo[1,5-a] pyrimidine-3-carboxamide] | > 1000 nM | ≤ 1000 nM | 132, 134, 136, 137, 138, 140, 150, 152, 153, 154, 155, M^−1 · s^−1 |
| NC(=O)c1c(-c2ccc(Oc3ccccc3)cc2)nn2c1NCCC2C1CCN(C(=O)n2cncn2)CC1 (stereo not drawn) [Compound 136, 7-(1-(1H-1,2,4-triazole-1-carbonyl)piperidin-4-yl)-2-(4-phenoxyphenyl)-4,5,6,7-tetrahydropyrazolo[1,5-a] pyrimidine-3-carboxamide] | ≤ 1000 nM | ≤ 1000 nM | 132, 134, 136, 137, 138, 140, 150, 152, 153, 154, 155, M^−1 · s^−1 |
| COc1ccc(F)cc1C(=O)NCc1ccc(-c2nn(C3CCCCN(C(=O)n4cncn4)C3)c(N)c2C(N)=O)cc1 (stereo not drawn) [Compound 256, 1-(1-(1H-1,2,4-triazole-1-carbonyl)azepan-3-yl)-5-amino-3-(4-((5-fluoro-2-methoxybenzamido)methyl)phenyl)-1H-pyrazole-4-carboxamide] | ≤ 1000 nM | ≤ 1000 nM | 248, 249, 250, 253, 254, 256, 259, 260, 261, 264, 265, M^−1 · s^−1 |
| COc1ccc(F)cc1C(=O)NCc1ccc(-c2nn(C3CCCC4(CCN4C(=O)n4cncn4)C3)c3ncnc(N)c23)cc1 (stereo not drawn) [Compound 152, N-(4-(1-(1-(1H-1,2,4-triazole-1-carbonyl)-1-azaspiro[3.5]nonan-6-yl)-4-amino-1H-pyrazolo[3,4-d]pyrimidin-3-yl)benzyl)-5-fluoro-2-methoxybenzamide] | – | ≤ 1000 nM | 132, 134, 136, 137, 138, 140, 150, 152, 153, 154, 155, M^−1 · s^−1 |
| COc1ccc(F)cc1C(=O)NCc1ccc(-c2nn(C[C@@H]3CCC[C@H]3CN(C)C(=O)n3cncn3)c3ncnc(N)c23)cc1 [Compound 153, N-(((1R,2R)-2-((4-amino-3-(4-((5-fluoro-2-methoxybenzamido)methyl)phenyl)-1H-pyrazolo[3,4-d]pyrimidin-1-yl)methyl)cyclopentyl)methyl)-N-methyl-1H-1,2,4-triazole-1-carboxamide] | ≤ 1000 nM | ≤ 1000 nM | 132, 134, 136, 137, 138, 140, 150, 152, 153, 154, 155, M^−1 · s^−1 |
| COc1ccc(F)cc1C(=O)NCc1ccc(-c2nn(C[C@H]3CCCCN3C(=O)n3cncn3)c(N)c2C(N)=O)cc1 [Compound 154, (R)-1-((1-(1H-1,2,4-triazole-1-carbonyl)piperidin-2-yl)methyl)-5-amino-3-(4-((5-fluoro-2-methoxybenzamido)methyl)phenyl)-1H-pyrazole-4-carboxamide] | ≤ 1000 nM | ≤ 1000 nM | 132, 134, 136, 137, 138, 140, 150, 152, 153, 154, 155, M^−1 · s^−1 |
| COc1ccc(F)cc1C(=O)NCc1ccc(-c2nn(C(C)C(C)CN(C)C(=O)n3cncn3)c3ncnc(N)c23)cc1 (stereo not drawn) [Compound 248, N-(3-(4-amino-3-(4-((5-fluoro-2-methoxybenzamido)methyl)phenyl)-1H-pyrazolo[3,4-d]pyrimidin-1-yl)-2-methylbutyl)-N-methyl-1H-1,2,4-triazole-1-carboxamide] | ≤ 1000 nM | – | 248, 249, 250, 253, 254, 256, 259, 260, 261, 264, 265, M^−1 · s^−1 |

Further lines, with some results ahead:

| IC50 (BTK wildtype protein [2]) | IC50 (BTK C481S protein) | SMILES | BTK (wt) Kobs (BTK wildtype protein [1]) |
| --- | --- | --- | --- |
| > 1000 nM | ≤ 1000 nM | CN(CCC1CNc2c(C(N)=O)c(-c3ccc(Oc4ccccc4)cc3)nn2C1)C(=O)n1cncn1 (stereo not drawn) [Compound 265, 6-(2-(N-methyl-1H-1,2,4-triazole-1-carboxamido)ethyl)-2-(4-phenoxy-phenyl)-4,5,6,7-tetrahydro-pyrazolo[1,5-a]pyrimidine-3-carboxamide] | 248, 249, 250, 253, 254, 256, 259, 260, 261, 264, 265, M^−1 · s^−1 |
| > 1000 nM | > 1000 nM | COc1ccc(F)cc1C(=O)NCc1ccc(-c2nn(C[C@H](C(C)C)N(C)C(=O)n3cncn3)c3ncnc(N)c23)cc1 [Compound 259, (S)-N-(1-(4-amino-3-(4-((5-fluoro-2-methoxybenzamido)methyl)phenyl)-1H-pyrazolo[3,4-d]pyrimidin-1-yl)-3-methylbutan-2-yl)-N-methyl-1H-1,2,4-triazole-1-carboxamide] | 248, 249, 250, 253, 254, 256, 259, 260, 261, 264, 265, M^−1 · s^−1 |
| > 1000 nM | ≤ 1000 nM | COc1ccc(F)cc1C(=O)NCc1ccc(-c2nn(C(C)C(C)N(C)C(=O)n3cnnc3)c(N)c2C(N)=O)cc1 (stereo not drawn) [Compound 155, N-(3-(5-amino-4-carbamoyl-3-(4-((5-fluoro-2-methoxybenzamido)methyl)phenyl)-1H-pyrazol-1-yl)butan-2-yl)-N-methyl-4H-1,2,4-triazole-4-carboxamide] | 132, 134, 136, 137, 138, 140, 150, 152, 153, 154, 155, M^−1 · s^−1 |
| – | ≤ 1000 nM | COc1ccc(F)cc1C(=O)NCc1ccc(-c2nn(C3CCC(N(C)C(=O)n4cncn4)C3)c(N)c2C(N)=O)cc1 (stereo not drawn) [Compound 150, N-(3-(5-amino-4-carbamoyl-3-(4-((5-fluoro-2-methoxybenzamido)methyl)phenyl)-1H-pyrazol-1-yl)cyclopentyl)-N-methyl-1H-1,2,4-triazole-1-carboxamide] | 132, 134, 136, 137, 138, 140, 150, 152, 153, 154, 155, M^−1 · s^−1 |
| ≤ 1000 nM | ≤ 1000 nM | COc1ccc(F)cc1C(=O)NCc1ccc(-c2nn(C(C)C3CCCCN3C(=O)n3cncn3)c(N)c2C(N)=O)cc1 (stereo not drawn) [Compound 249, 1-(1-(1-(1H-1,2,4-triazole-1-carbonyl)piperidin-2-yl)ethyl)-5-amino-3-(4-((5-fluoro-2-methoxybenzamido)methyl)phenyl)-1H-pyrazole-4-carboxamide] | 248, 249, 250, 253, 254, 256, 259, 260, 261, 264, 265, M^−1 · s^−1 |
